{"source": "patent US11795510B2", "about": "“Identification of epigenomic reprogramming in cancer and uses thereof” (The Johns Hopkins University, priority 2016, dated 2023)", "assay_type_in_all_cases": "cell-based, human", "key": {"[1]": {"tested_on": "global chromatin modifications in peritoneal subclone (A38Per), normal cells (HPDE, fibroblast) and local-regional PDACs", "assay": "Western blots of histone modifications, peritoneal subclone, normal cells and local-regional PDACs", "method": "Histones were acid extracted as described and western blots performed on 3.5 ug histones, which were checked by Ponceau stains prior to western blot to ensure equal loading. Densitometry was performed with ImageJ software. RNA was extracted with Trizol reagent (Life Technologies) and isopropanol precipitated. Genomic DNA was purified with MasterPure DNA extraction reagents (Epicenter). Immunohistochemistry, H&E staining, and immunofluorescence on formalin-fixed, paraffin-embedded (FFPE) tissue microarray sections (TMAs) were performed according to standard procedures.\nRNAi experiments were performed with siRNA transfections (Oligofectamine, Life Technologies) using negative control siRNA (Sigma, SIC001) and pre-designed siRNA oligonucleotides against indicated genes in parallel (Sigma, PGD: SASI_Hs02 00334150, CDH2: SASI_Hs01_00153995, TOP2B: SASI_Hs02_00311874). siRNAs against mutant KRAS^G12V (CUACGCCAACAGCUCCAAC) (SEQ ID NO:1) were custom designed. Cells were incubated with siRNAs for 4 days after transfection and harvested. For drug treatments in 2-D, cells were grown to 70-80% confluency and treated for 3 days with 250 uM 6AN or DMSO negative control."}, "[2]": {"tested_on": "distant metastatic and precursor subclones", "assay": "YSI metabolite analysis (glucose/glutamine consumption, lactate/glutamate secretion)", "method": "Tissue samples and cell lines were previously collected from PDAC patients by rapid autopsy, sequenced-validated, and monitored for mycoplasma as previously described. Low passage (2-17) rapid autopsy cell lines were cultured at 37° C. in DMEM with 10% fetal bovine serum (FBS, Gibco). For MTT assays, 15,000 cells/well were plated into 96 well plates in triplicate, treated 12 hours later, and assayed after 24 hr (glucose responses) or 6 days (chemotherapy) with CellTiter96 (Promega). For glucose response assays, nutrient-deplete DMEM (no glucose, glutamine, pyruvate, or serum) was used with addition of glucose as indicated. […] Cells were then washed with PBS, trypsinized, and viable cells counted with a hemocytometer. Glucose uptake and lactate secretion were measured with a YSI 7100 Bioanalyzer as described in the supplementary methods. […]\nYSI metabolite analysis. Metabolite consumption (glucose and glutamine) and production (lactate and glutamate) were measured using a YSI 7100 Bioanalyzer. […] At day 0 cells were counted (3 wells) or cultured in either regular medium or medium supplemented with the indicated compound. […] The area under the curve (AUC) was calculated as N(T)d/ln2([…]), where N(T) is the final cell count, d is doubling time, and T is time of experiment. […]"}, "[3]": {"tested_on": "distant metastatic subclones", "assay": "Organotypic tumor forming assay (3D organotypic stromal cultures)", "method": "Organotypic tumor forming assays were adapted from Ridky et al. (P.A. Invasive three-dimensional organotypic neoplasia from multiple normal human epithelia. Nat Med 16, 1450-5 (2010)) and Andl et al. (Epidermal growth factor receptor mediates increased cell proliferation, migration, and aggregation in esophageal keratinocytes in vitro and in vivo. J Biol Chem 278, 1824-30 (2003)). Briefly, 6 well permeable transwell plates (Costar 3414) were overlayed with 1 mL type 1 collagen containing 10×DMEM (acellular layer). Human dermal fibroblasts (ATCC) were suspended (12×10^6 cells/mL) in a mixture of ice cold 10×DMEM, 10% FBS, 52.5% collagen, and 17.5% matrigel (cellular layer), thoroughly mixed, and 2 mL/well plated over the acellular layer. The mixture was allowed to partially solidify for approximately 15 minutes at 37° C., followed by triplicate injection of 1×10^6 PDAC (suspended in 20 ul DMEM) cells into the cellular layer. Cells were incubated for 24 hours in fibroblast growth media above and below the inserts to initiate contraction of the discs. […] Discs were harvested, fixed overnight in 10% formalin, […], and stained with H&E. Tumors were photographed and measured with an Olympus BX53 microscope using cellSens Standard software."}}, "note": "“Also recorded” adds a separate entry of the source.", "data": [{"smiles": "NC(=O)c1ccc(N)nc1", "note": "[6AN, 6-aminonicotinamide]", "values": [{"measurement": "histone modifications, western blot densitometry", "setting": "[1]; normal (HPDE, fibroblast) or local-regional PDAC samples", "value": "minimal effects; also recorded: did not show such changes"}, {"measurement": "effect on global chromatin modifications (western blots)", "setting": "[1]; peritoneal subclone A38Per", "value": "no effect"}, {"measurement": "glutamine consumption or glutamate secretion", "setting": "[2]", "value": "no effect"}, {"measurement": "rates of glucose consumption and lactate secretion", "setting": "[2]", "value": "selectively slowed"}, {"measurement": "tumor formation after injection into 3D organotypic stromal cultures", "setting": "[3]", "value": "selectively and strongly blocked tumor formation; also recorded: blocked"}]}]}
